This is an account of results in paper PMC8333425, “Discovery of a dual Ras and ARF6 inhibitor from a GPCR endocytosis screen” (Nature Communications, 2021).

Each structure is given as a SMILES string. Several values for one entry are separate records, joined by “and”; a condition that tells them apart may be missing. Equal entries are not always repeated. Entries after “also recorded” stand apart in the source; their conditions may differ.

For one data set, the target named is T1, ARF1 (Homo sapiens, UniProt P84077).
T1 construct: expressed in transfected cells; host or cells: HEK293SL
Put plainly: GST-GGA3-PBD pull-down of AT1R-mediated HA-ARF1 activation. Format: cell-based. To be noted: for ARF1-GTP/ARF1: GST-GGA3-PBD, listed as Comp 21. The procedure: Activation of ARF1, ARF6, Ras, and Rho were assessed by using GST pull-down assays. HEK293SL cells were transiently transfected with 3 µg AT1R-flag only (Ras and Rho) or along with 500 ng HA-ARF6 (ARF6) or HA-ARF1 (ARF1). Forty-eight hours later, the HEK293 or MDA-MB-231 cells were serum-starved for 4 h with DMEM containing 20 mM HEPES then pretreated with DMSO or Rasarfin (50 µM) for 30 min. Cells were then stimulated with 1 µM AngII or 100 ng/ml EGF for 0 and 2 min. Cells were then washed once with ice-cold PBS and lysed for 30 min at 4 °C in 300 µl of lysis buffer (pH 7.5, 50 mM Tris-HCl, 140 mM NaCl, 5 mM MgCl2, 10% glycerol (v/v), 1% Nonidet P-40 (v/v), 1 mM dithiothreitol) supplemented with protease inhibitors (1 mM phenylmethyl-sulfonyl fluoride (PMSF), 10 µg/ml leupeptin, 5 µg/ml aprotinin, 1 µg/ml pepstatin A) and phosphatase inhibitors (20 mM NaF, 0.025 mM pervanadate). The samples were cleared by centrifugation and 30 µl (cell lysates) was kept for assessing total protein contents. The remaining was transferred to fresh tubes with 20 µg of either GST, GST-GGA3-PBD, GST-Raf1-RBD or GST-Rhotekin-RBD coupled to glutathione resin and rotated for 1–2 h at 4 °C. Beads were washed twice with lysis buffer and proteins were eluted in 25 μl 2x laemmli buffer by heating at 65 °C for 15 min. Proteins were resolved on 14% SDS-PAGE, transferred to nitrocellulose membranes, and immunoblotted for HA, Ras, RhoA, H-Ras, or ARF6. ImageLab 5.2 software was used to quantify the digital blots as fold of the amount of pulled down protein over total protein. Uncropped coomassie gels and immunoblots are provided in the Source Data file.

A further data set concerns HEK293 cells. Conditions: Barbadin 100 µM; cited from earlier work.

T1 sequence (P84077 whole entry): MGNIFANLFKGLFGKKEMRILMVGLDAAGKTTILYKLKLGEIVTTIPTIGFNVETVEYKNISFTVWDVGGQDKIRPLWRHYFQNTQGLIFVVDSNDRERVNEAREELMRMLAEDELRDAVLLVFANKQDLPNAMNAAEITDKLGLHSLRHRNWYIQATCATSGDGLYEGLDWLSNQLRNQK

Take `CC(C)C(=O)N1CCN(c2ccc(NC(=O)c3cc4ccccc4o3)cc2Cl)CC1` [Compound 21]: the “effect on AT1R-dependent ARF1 activation” value on ARF1 (50 μM) is “no effect”. Also, the ARF1-GTP/ARF1 at ARF1 (AngII) was 0.143 and 0.2667 and 0.2223; at ARF1 (Ctrl) it was 0.07407 and 0.04303 and 0.06878.

With `Nn1cnc2scc(-c3ccc(Cc4ccccc4)cc3)c2c1=O` [Barbadin, reference compound], in the data set with HEK293 cells, the “toxicity to HEK293 cells (flat, cobblestone appearance retained)” value is “non-toxic to cells; also recorded: nontoxic”.
